From patent US4694069A, “Kibdelosporangium aridum SK&F-AAD-609” (SmithKline Beckman Corporation, priority 1985, dated 1987) come the findings set out here.

Series [1] deals with rumen fermentation (strained rumen fluid). As to the kind of experiment: Rumen in vitro model. The arrangement: species or system steer. Particulars: for AAN (alpha amino nitrogen) / AMO (ammonia nitrogen) / LYS (lysine): 6 h; for % PR (percent propionate) / ACE (acetate) / BUT (butyrate) / ETOH (ethanol) / IBU (isobutyrate) / IVA (isovalerate) / PRO (propionate) / TOTAL (total volatile fatty acids) / VAL: 24 h. As for the experimental part: The AAD-609 antibiotics were characterized in a rumen in vitro model to assess their potential as feed additives for ruminants. […] Specifically, strained rumen fluid (10 ml) obtained from a fistulated steer receiving a roughage ration, was mixed with 10 ml of nutrient broth (20 mg casein hydrolysate, 100 mg maltose, 15 mg urea, 400 mg solka floc (cellulose), 100 mg cellobiose and 100 mg starch) and with a selected growth promotant and incubated at 39° C., with oscillation, for 24 hours. […] Measurement of AMO, LYS and AAN was done with a sample taken from the incubation flask after 6 hours.

The subject of series [2] is mixed intestinal microflora (cecum fluid). As to the kind of experiment: Swine in vitro model. Particulars: one level, up to 166.67 ppm; 4-5 h. Here is the method:
A swine in vitro model was used to characterize AAD-609 antibiotics as potential feed additives in swine and poultry. Mixed intestinal microflora were obtained from ileally-cannulated pigs. Virginiamycin, carbadox, AAD-216 and its components, and AAD-609 Complex (containing less than 5% AAD-216 antibiotics) were tested at one level. […] Glucose (GLU) was spared from microbial degradation. Volatile fatty acids (TOTAL) were the major end-product of microbial metabolism while lactic acid production were reduced. […] Since AAD-609 and AAD-216 give similar in vitro results, it is expected that AAD-609 has similar growth-promoting activity in monogastric animals. Also, the in vitro activity of AAD-609 is similar to the activity previously observed with bacitracin in this model.
The swine in vitro model was carried out by incubating 1.5 ml of cecum fluid, from a swine fed normal rations, mixed with 1.5 ml of a nutrient broth (3 mg casein hydrolysate, 30 mg maltose, 1.25 mg urea, 0.5 mg lysine, and 30 mg cellobiose) and with up to 166.67 parts per million of a selected growth promotant at 39° C., with oscillation, for about 4-5 hours. Results, percentage of control, are reported in the following table in which all abbreviations are as above except that LLA means L-lactate and ETOH means ethanol.

For another series, the system named is SK&F-AAD-609. Nature of the series: Susceptibility of SK&F-AAD-609 to antibiotics (diffusion method, BBL susceptibility disks). It counts as cell-based, Kibdelosporangium aridum subsp. largum. Particulars: 28° C., one week. Here is the method: Susceptibility of SK&F-AAD-609 to antibiotics was examined by placing BBL susceptibility disks on nutrient agar plates seeded with SK&F-ADD-609 as an agar overlay. Plates were placed at 4° C. for one hour to permit diffusion of the anitbiotics and, subsequently, incubated at 28° C. Diameters of the zones of inhibition were measured after incubation for one week.
Susceptibility to Antibiotics. […] Chlortetracycline (5 μg) produced 17-18 mm zones of inhibition; tetracycline (5 μg) 9-12 mm zones; rifampin (5 μg) 10-12 mm zones; novobiocin (5 μg) 30-35 mm zones. All zones of inhibition contained at least a few resistant colonies.

Series [3] has as its system Hubbard cross day-old chicks. As to the kind of experiment: Growth of chicks. The following applies: 8 reps. Type of series: in vivo. As for the experimental part:
The effects of virginiamycin, AAD-609 Complex (containing less than 5% AAD-216 antibiotics) and AAD-216 Complex on growth of chicks were evaluated as follows. Hubbard cross day-old chicks were housed in wire-floored poultry caging. Eight chicks were included in each pen/rep. Weights and feed intakes were recorded on days 10 and 17. Results showing animal weight as a percentage of a control fed a normal rye-based ration and animal feed intake per unit weight gain as a percentage of animal feed intake (g) per unit weight gain (g) of the controls are reported in the following table.

Take `CNC1C(=O)NC2C(=O)NC(C(=O)NC3C(=O)NC4C(=O)NC(C(=O)NC(C(=O)O)c5cc(O)cc(OC6OC(CO)C(O)C(O)C6O)c5-c5cc4ccc5O)C(O)c4cc(Cl)c(c(Cl)c4)Oc4cc3cc(c4OC3OC(C(=O)O)C(O)C(O)C3NC(=O)CCCCCCCCC(C)C)Oc3ccc(cc3Cl)C2O)c2cc(cc(O)c2Cl)Oc2cc1ccc2O` (stereo not drawn) [AAD-216 C]: in series [1] (0.50 ppm), the “AAN (alpha amino nitrogen)” value is 96 % of control, the “AMO (ammonia nitrogen)” value was 99 % of control, the “LYS (lysine)” value was 78 % of control and the “% PR (percent propionate)” value is reported as 105 % of control. For the same compound, in series [1] (0.50 ppm), the “ACE (acetate)” value is recorded as 94 % of control, the “BUT (butyrate)” value is listed as 101 % of control, the “ETOH (ethanol)” value is 0 % of control and the “IBU (isobutyrate)” value is 123 % of control. Also, in series [1] (0.50 ppm), the “IVA (isovalerate)” value is reported as 123 % of control, the “PRO (propionate)” value was 105 % of control, the “TOTAL (total volatile fatty acids)” value was 100 % of control and the VAL is on record as 102 % of control. Moreover, in series [1] (5.00 ppm), the “AAN (alpha amino nitrogen)” value is on record as 136 % of control, the “AMO (ammonia nitrogen)” value is given as 98 % of control, the “LYS (lysine)” value is on record as 102 % of control and the “% PR (percent propionate)” value was 148 % of control. In addition, in series [1] (5.00 ppm), the “ACE (acetate)” value is 96 % of control, the “BUT (butyrate)” value is given as 83 % of control, the “ETOH (ethanol)” value is 0 % of control and the “IBU (isobutyrate)” value is 86 % of control. Moreover, in series [1] (5.00 ppm), the “IVA (isovalerate)” value is recorded as 56 % of control, the “PRO (propionate)” value is reported as 148 % of control, the “TOTAL (total volatile fatty acids)” value is listed as 100 % of control and the VAL is reported as 51 % of control. In series [1] (50.00 ppm), the “AAN (alpha amino nitrogen)” value was 166 % of control, the “AMO (ammonia nitrogen)” value is recorded as 106 % of control, the “LYS (lysine)” value is 144 % of control and the “% PR (percent propionate)” value was 149 % of control. Besides, in series [1] (50.00 ppm), the “ACE (acetate)” value is on record as 98 % of control, the “BUT (butyrate)” value is recorded as 88 % of control, the “ETOH (ethanol)” value is on record as 0 % of control and the “IBU (isobutyrate)” value is 111 % of control. Besides, in series [1] (50.00 ppm), the “IVA (isovalerate)” value is reported as 87 % of control, the “PRO (propionate)” value is 154 % of control, the “TOTAL (total volatile fatty acids)” value is 104 % of control and the VAL is 30 % of control. In addition, in series [2], the “% PR (percent propionate)” value is 127 % of control, the “ACE (acetate)” value is on record as 175 % of control, the “BUT (butyrate)” value is on record as 105 % of control and the “ETOH (ethanol)” value is reported as 0 % of control. Further, in series [2], the “GLU (glucose)” value is given as 181 % of control, the “IBU (isobutyrate)” value is reported as 0 % of control, the “IVA (isovalerate)” value is 0 % of control and the “LLA (L-lactate)” value is 2 % of control. Further, in series [2], the “LYS (lysine)” value was 29 % of control, the “PRO (propionate)” value was 281 % of control, the “TOTAL (total volatile fatty acids)” value is given as 221 % of control and the VAL was 0 % of control.
As for `CN(C)[C@@H]1C(O)=C(C(N)=O)C(=O)[C@@]2(O)C(O)=C3C(=O)c4c(O)ccc(Cl)c4[C@@](C)(O)[C@H]3C[C@@H]12` [Chlortetracycline], the “Zone of inhibition (diameter)” value in the series with SK&F-AAD-609 (disk 5 μg) was 17-18 mm.
With `CC1(C)S[C@@H]2[C@H](NC(=O)[C@H](N)c3ccccc3)C(=O)N2[C@H]1C(=O)O` [ampicillin], the “Susceptibility (diffusion method)” value in the series with SK&F-AAD-609 (disk 10 μg) is recorded as “resistant”.
In the case of `CC(=O)OCC1=C(C(=O)O)N2C(=O)[C@@H](NC(=O)Cc3cccs3)[C@H]2SC1` [cephalothin], in the series with SK&F-AAD-609 (disk 30 μg), the “Susceptibility (diffusion method)” value is “resistant”.
On to `O=C(N[C@H](CO)[C@H](O)c1ccc([N+](=O)[O-])cc1)C(Cl)Cl` [chloramphenicol], for which the “Susceptibility (diffusion method)” value with SK&F-AAD-609 (disk 5 μg) was “resistant”.
Turning to `CCC[C@@H]1C[C@@H](C(=O)N[C@@H]([C@H]2O[C@H](SC)[C@H](O)[C@@H](O)[C@H]2O)[C@@H](C)O)N(C)C1` [lincomycin], the “Susceptibility (diffusion method)” value in the series on SK&F-AAD-609 (disk 2 μg) is “resistant”.
Take `CO[C@@H]1[C@@H](OC(N)=O)[C@@H](O)[C@H](Oc2ccc3c(O)c(NC(=O)c4ccc(O)c(CC=C(C)C)c4)c(=O)oc3c2C)OC1(C)C` [novobiocin]: the “Zone of inhibition (diameter)” value in the series with SK&F-AAD-609 (disk 5 μg) was 30-35 mm.
Turning to `CC1(C)S[C@@H]2[C@H](NC(=O)Cc3ccccc3)C(=O)N2[C@H]1C(=O)O` [penicillin], the “Susceptibility (diffusion method)” value in the series on SK&F-AAD-609 (disk 10 units) is recorded as “resistant”.
Take `CO[C@H]1/C=C/O[C@@]2(C)Oc3c(C)c(O)c4c(O)c(c(/C=N/N5CCN(C)CC5)c(O)c4c3C2=O)NC(=O)/C(C)=C\C=C\[C@H](C)[C@H](O)[C@@H](C)[C@@H](O)[C@@H](C)[C@H](OC(C)=O)[C@@H]1C` [rifampin]: the “Zone of inhibition (diameter)” value with SK&F-AAD-609 (disk 5 μg) is given as 10-12 mm.
With `[H]/N=C(/N)N[C@H]1[C@H](O)[C@@H](O)[C@H](O[C@@H]2O[C@@H](C)[C@](O)(C=O)[C@H]2O[C@@H]2O[C@@H](CO)[C@H](O)[C@@H](O)[C@@H]2NC)[C@@H](N/C(N)=N\[H])[C@@H]1O` [streptomycin], the “Susceptibility (diffusion method)” value in the series on SK&F-AAD-609 (disk 10 μg) was “resistant”.
On to `CN(C)[C@@H]1C(=O)C(C(N)=O)=C(O)[C@@]2(O)C(=O)C3=C(O)c4c(O)cccc4[C@@](C)(O)[C@H]3C[C@@H]12` [tetracycline], for which, in the series on SK&F-AAD-609 (disk 5 μg), the “Zone of inhibition (diameter)” value is 9-12 mm.
Regarding `NC[C@H]1O[C@H](O[C@H]2[C@H](O)[C@@H](O[C@H]3O[C@H](CO)[C@@H](O)[C@H](N)[C@H]3O)[C@H](N)C[C@@H]2N)[C@H](N)C[C@@H]1O` [tobramycin], the “Susceptibility (diffusion method)” value in the series on SK&F-AAD-609 (disk 10 μg) is on record as “resistant”.
Same read-out and setting: in the case of gentamicin it was “resistant”.
As to virginiamycin, in series [3] (10.0 ppm in feed), the “Feed/gain, days 3-10” value was 99.8 % of control; the “Feed/gain, days 3-17” value is listed as 97.5 % of control; the “Feed/gain, days 10-17” value is 96.6 % of control; the Mortality was 4. Besides, in series [3] (10.0 ppm in feed), the “Weight, day 10” value was 100.3 % of control and the “Weight, day 17” value was 101.8 % of control. Moreover, in series [3] (50.0 ppm in feed), the “Feed/gain, days 3-10” value was 92.8 % of control; the “Feed/gain, days 3-17” value is on record as 83.2 % of control; the “Feed/gain, days 10-17” value was 74.3 % of control; the Mortality came to 2. In addition, in series [3] (50.0 ppm in feed), the “Weight, day 10” value is reported as 101.5 % of control and the “Weight, day 17” value is reported as 120.2 % of control. For the same compound, in series [2], the “% PR (percent propionate)” value is on record as 69 % of control, the “ACE (acetate)” value is listed as 53 % of control, the “BUT (butyrate)” value is given as 153 % of control and the “ETOH (ethanol)” value was 25 % of control. In series [2], the “GLU (glucose)” value is recorded as 180 % of control, the “IBU (isobutyrate)” value was 0 % of control, the “IVA (isovalerate)” value is recorded as 0 % of control and the “LLA (L-lactate)” value is listed as 4 % of control. In series [2], the “LYS (lysine)” value was 94 % of control, the “PRO (propionate)” value was 44 % of control, the “TOTAL (total volatile fatty acids)” value is 63 % of control and the VAL is 0 % of control.
